From patent US20210261527A1, “OGA INHIBITOR COMPOUNDS” (Janssen Pharmaceutica NV, priority 2018, published 2021)
Where a name gives a salt, the structure may show the parent alone.

Columns and labels:
[1] = molecular target: T1, recombinant human Meningioma Expressed Antigen 5 (MGEA5), also referred to as O-GlcNAcase (OGA) (Homo sapiens, UniProt O60502); test: OGA biochemical assay (FM-GlcNAc hydrolysis, fluorescence); conditions: full length OGA 2 nM, FM-GlcNAc 100 uM, pH 7.2, 6 h at room temperature; for Emax: read-out: Enzymatic Emax (%); for IC50: read-out: Enzymatic hOGA, pIC50 (converted)
T1 construct: Full length OGA enzyme was purchased at OnGene (cat #TP322411); purchased OnGene (so in the source)
T1 sequence (O60502 1-916): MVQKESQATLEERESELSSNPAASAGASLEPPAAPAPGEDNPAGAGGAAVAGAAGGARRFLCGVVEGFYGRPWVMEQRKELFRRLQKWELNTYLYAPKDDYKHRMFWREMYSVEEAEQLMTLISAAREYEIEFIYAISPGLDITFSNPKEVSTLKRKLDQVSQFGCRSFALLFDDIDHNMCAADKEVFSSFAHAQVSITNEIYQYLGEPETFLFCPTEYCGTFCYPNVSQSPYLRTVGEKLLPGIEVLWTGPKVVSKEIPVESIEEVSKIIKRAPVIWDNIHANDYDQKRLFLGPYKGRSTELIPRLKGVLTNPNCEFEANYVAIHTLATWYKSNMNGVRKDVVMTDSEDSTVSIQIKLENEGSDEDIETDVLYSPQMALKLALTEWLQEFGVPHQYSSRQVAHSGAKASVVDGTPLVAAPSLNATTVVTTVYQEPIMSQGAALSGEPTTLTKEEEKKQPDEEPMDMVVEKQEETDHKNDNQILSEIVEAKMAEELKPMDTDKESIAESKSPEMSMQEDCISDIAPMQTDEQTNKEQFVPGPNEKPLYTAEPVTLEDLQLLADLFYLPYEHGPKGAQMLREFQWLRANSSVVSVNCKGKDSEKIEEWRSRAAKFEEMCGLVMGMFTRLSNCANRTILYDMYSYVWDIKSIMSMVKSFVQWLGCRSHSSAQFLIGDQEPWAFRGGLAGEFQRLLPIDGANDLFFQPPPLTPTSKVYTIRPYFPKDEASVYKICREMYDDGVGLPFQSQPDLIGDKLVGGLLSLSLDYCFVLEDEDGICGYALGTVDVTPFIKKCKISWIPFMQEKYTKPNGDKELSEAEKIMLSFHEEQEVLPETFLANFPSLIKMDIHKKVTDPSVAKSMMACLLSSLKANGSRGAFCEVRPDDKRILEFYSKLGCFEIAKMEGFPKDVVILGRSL
Source text: The assay is based on the inhibition of the hydrolysis of fluorescein mono-β-D-N-Acetyl-Glucosamine (FM-GlcNAc) (Mariappa et al. 2015, Biochem J 470:255) by the recombinant human Meningioma Expressed Antigen 5 (MGEA5), also referred to as O-GlcNAcase (OGA). The hydrolysis FM-GlcNAc (Marker Gene technologies, cat #M1485) results in the formation of β-D-N-glucosamineacetate and fluorescein. The fluorescence of the latter can be measured at excitation wavelength 485 nm and emission wavelength 538 nm. An increase in enzyme activity results in an increase in fluorescence signal. Full length OGA enzyme was purchased at OnGene (cat #TP322411). The enzyme was stored in 25 mM Tris.HCl, pH 7.3, 100 mM glycine, 10% glycerol at −20° C. Thiamet G and GlcNAcStatin were tested as reference compounds (Yuzwa et al. 2008 Nature Chemical Biology 4:483; Yuzwa et al. 2012 Nature Chemical Biology 8:393). The assay was performed in 200 mM Citrate/phosphate buffer supplemented with 0.005% Tween-20. 35.6 g Na2HPO4 2 H2O (Sigma, #C0759) were dissolved in 1 L water to obtain a 200 mM solution. 19.2 g citric acid (Merck, #1.06580) was dissolved in 1 L water to obtain a 100 mM solution. pH of the sodiumphosphate solution was adjusted with the citric acid solution to 7.2. The buffer to stop the reaction consists of a 500 mM Carbonate buffer, pH 11.0. 734 mg FM-GlcNAc were dissolved in 5.48 mL DMSO to obtain a 250 mM solution and was stored at −20° C. OGA was used at a 2 nM concentration and FM-GlcNAc at a 100 uM final concentration. Dilutions were prepared in assay buffer.
50 nl of a compound dissolved in DMSO was dispensed on Black Proxiplate™ 384 Plus Assay plates (Perkin Elmer, #6008269) and 3 μl fl-OGA enzyme mix added subsequently. Plates were pre-incubated for 60 min at room temperature and then 2 μl FM-GlcNAc substrate mix added. […] Plates were briefly centrifuged for 1 min at 1000 rpm and incubate at room temperature for 6 h. To stop the reaction 5 μl STOP buffer were added and plates centrifuge again 1 min at 1000 rpm. Fluorescence was quantified in the Thermo Scientific Fluoroskan Ascent or the PerkinElmer EnVision with excitation wavelength 485 nm and emission wavelength 538 nm.
For analysis a best-fit curve is fitted by a minimum sum of squares method. From this an IC50 value and Hill coefficient was obtained. High control (no inhibitor) and low control (saturating concentrations of standard inhibitor) were used to define the minimum and maximum values.

[2] = molecular target: T2, hOGA in HEK293 cells inducible for P301L mutant human Tau (isoform 2N4R) (Homo sapiens, UniProt O60502); test: OGA cellular assay (ICC detection of O-GlcNAcylated proteins); type: cell-based; conditions: 6 hours incubation; for EC50: O-GlcNAcylation intensity readout at 488 nm, read-out: Cellular hOGA, pEC50 (converted); for Emax: maximum = Thiamet G at 200 uM
T2 construct: endogenous in cells; host or cells: HEK293 cells inducible for P301L mutant human Tau (isoform 2N4R)
T2 sequence (O60502 1-916): T1 sequence (O60502 1-916)
Description: HEK293 cells inducible for P301L mutant human Tau (isoform 2N4R) were established at Janssen. Thiamet-G was used for both plate validation (high control) and as reference compound (reference EC50 assay validation). OGA inhibition is evaluated through the immunocytochemical (ICC) detection of O-GlcNAcylated proteins by the use of a monoclonal antibody (CTD110.6; Cell Signaling, #9875) detecting 0-GlcNAcylated residues as previously described (Dorfmueller et al. 2010 Chemistry & biology, 17:1250). Inhibition of OGA will result in an increase of O-GlcNAcylated protein levels resulting in an increased signal in the experiment. Cell nuclei are stained with Hoechst to give a cell culture quality control and a rough estimate of immediate compounds toxicity, if any. ICC pictures are imaged with a Perkin Elmer Opera Phenix plate microscope and quantified with the provided software Perkin Elmer Harmony 4.1.
Cells were propagated in DMEM high Glucose (Sigma, #D5796) following standard procedures. 2 days before the cell assay cells are split, counted and seeded in Poly-D-Lysine (PDL) coated 96-wells (Greiner, #655946) plate at a cell density of 12,000 cells per cm^2 (4,000 cells per well) in 100 μl of Assay Medium (Low Glucose medium is used to reduce basal levels of GlcNAcylation) (Park et al. 2014 The Journal of biological chemistry 289:13519). At the day of compound test medium from assay plates was removed and replenished with 90 μl of fresh Assay Medium. 10 μl of compounds at a 10fold final concentration were added to the wells. Plates were centrifuged shortly before incubation in the cell incubator for 6 hours. DMSO concentration was set to 0.2%. Medium is discarded by applying vacuum. For staining of cells medium was removed and cells washed once with 100 μl D-PBS (Sigma, #D8537). From next step onwards unless other stated assay volume was always 50 μl and incubation was performed without agitation and at room temperature. Cells were fixed in 50 μl of a 4% paraformaldehyde (PFA, Alpha aesar, #043368) PBS solution for 15 minutes at room temperature. […] Before analysis samples were washed 2 times manually for 5 minutes in ICC base buffer.
Imaging is performed using Perkin Elmer Phenix Opera using a water 20× objective and recording 9 fields per well. Intensity readout at 488 nm is used as a measure of O-GlcNAcylation level of total proteins in wells. To assess potential toxicity of compounds nuclei were counted using the Hoechst staining. IC50-values are calculated using parametric non-linear regression model fitting. As a maximum inhibition Thiamet G at a 200 uM concentration is present on each plate. In addition, a concentration response of Thiamet G is calculated on each plate.

Emax [1] [%]	IC50 [1] [nM]	EC50 [2] [nM]	Emax [2] [%]	melting point [°C]	Compound
60.8	7240	–	–	–	Cc1cc(C[C@H]2CCCN([C@@H](C)c3ccc4ccc(C)nc4c3)C2)cc(C)n1 (single isomer, unassigned) [Compound 2]
101	53.7	> 1000	34.8	–	Cc1cc(C[C@H]2CCCN([C@H](C)c3ccc4ccc(C)nc4c3)C2)cc(C)n1 (single isomer, unassigned) [Compound 3]
101	107	> 1000	11.2	–	Cc1cc(C[C@H]2CCCN(C(C)c3ccc4nc(O)cnc4c3)C2)cc(C)n1 (mixture of isomers) [Compound 10]
–	–	–	–	262.69	Cc1cc(C[C@H]2CCCN(C(C)c3ccc4cccnc4c3)C2)cc(C)n1 (mixture of isomers) (as salt: HCl) [Compound 9]
102	28.8	646	50.5	–	Cc1cc(C[C@H]2CCCN([C@@H](C)c3cnc4cccnc4c3)C2)cc(C)n1 (single isomer, unassigned) [Compound 4]
103	5.5	162	86.4	–	Cc1cc(C[C@H]2CCCN([C@H](C)c3cnc4cccnc4c3)C2)cc(C)n1 (single isomer, unassigned) [Compound 5]
99.6	47.9	–	41.1	–	Cc1cc(C[C@H]2CCCN(C(C)c3cc4ncccc4cn3)C2)cc(C)n1 (mixture of isomers) [Compound 6]
101	14.8	234	71.1	–	Cc1cc(C[C@H]2CCCN(C(C)c3ccc4cccnc4n3)C2)cc(C)n1 (mixture of isomers) [Compound 7]
98.5	195	> 1000	29.8	–	Cc1cc(C[C@H]2CCCN(Cc3ccc4cccnc4n3)C2)cc(C)n1 [Compound 8]
95.8	288	> 1000	33	152.83	Cc1cc(C[C@H]2CCCN(Cc3ccc4cccnc4c3)C2)cc(C)n1 [Compound 1]
